This is an account of results in paper PMC9103351, “Effects of the Bark Resin Extract of Garcinia nigrolineata on Chronic Stress-Induced Memory Deficit in Mice Model and the In Vitro Monoamine Oxidases and β-Amyloid Aggregation Inhibitory Activities of Its Prenylated Xanthone Constituents” (Molecules, 2022).

For one assay, the target named is T1, recombinant human MAO-A (Homo sapiens, UniProt P21397).
T1 construct: purchased Sigma-Aldrich
T1 sequence (P21397 1-527): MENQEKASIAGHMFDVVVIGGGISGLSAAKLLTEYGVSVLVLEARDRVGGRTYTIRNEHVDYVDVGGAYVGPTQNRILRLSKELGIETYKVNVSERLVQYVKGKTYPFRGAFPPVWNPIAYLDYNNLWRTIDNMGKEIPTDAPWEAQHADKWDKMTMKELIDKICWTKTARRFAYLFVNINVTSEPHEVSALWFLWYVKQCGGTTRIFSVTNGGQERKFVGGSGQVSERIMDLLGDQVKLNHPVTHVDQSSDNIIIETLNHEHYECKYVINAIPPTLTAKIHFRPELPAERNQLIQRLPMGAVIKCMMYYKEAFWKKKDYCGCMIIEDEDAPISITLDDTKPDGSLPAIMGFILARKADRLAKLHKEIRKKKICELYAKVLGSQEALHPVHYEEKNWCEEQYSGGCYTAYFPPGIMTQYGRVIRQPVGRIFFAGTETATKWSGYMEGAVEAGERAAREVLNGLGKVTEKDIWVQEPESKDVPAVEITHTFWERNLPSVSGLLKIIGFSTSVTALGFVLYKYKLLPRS
Nature of the assay: Inhibitory activity on recombinant human MAO-A (kynuramine, fluorescence). The class given is biochemical. The settings on record: for Si MAO-A: selective index from Ki values (Ki = IC50/(1 + [S]/Km)), Si = Ki (MAO-B)/Ki (MAO-A). Here is the method: (§1) The inhibitory activity assays of the isolated compound with recombinant human MAO-A and MAO-B (Sigma-Aldrich, St. Louis, MO, USA) were carried out with some modification as described recently by. In brief, 1–6 and 8–10 were first dissolved in DMSO to obtain a stock solution with a concentration of 25 mM. The activity was determined by serial dilution of each concentration of the compounds. For the MAO-A inhibitor assay, 4.5 µL of kynuramine (Sigma-Aldrich, St. Louis, MO, USA) were mixed with 234.75 µL of potassium phosphate buffer (100 mM, pH 7.4, made isotonic with KCl, 20.2 mM). Then, 3 µL of kynuramine were mixed with 236.25 µL of potassium phosphate buffer (pH 7.4) for the MAO-B inhibitor assay. The reaction was stopped by adding 400 µL of 2N NaOH and 1000 µL of water. The fluorescence of 4-hydroxyquinoline (Sigma-Aldrich, St. Louis, MO, USA), a by-product of this reaction, was measured with the excitation wavelength at 310 nm and the emission wavelength at 400 nm. The initial rates of MAO-catalyzed kynuramine oxidation were plotted versus the logarithm of the inhibitor concentrations and reported as IC50 values by using the Prism software package (GraphPad Software, version 5, San Diego, CA, USA) to evaluate quantitative. IC50 values were converted to Ki values by using the equation Ki = IC50/(1 + [S]/Km).

Another assay addresses T2, Aβ1-42 (Homo sapiens, UniProt P05067).
T2 construct: Aβ1-42 was dissolved in a 50 mM phosphate buffer (pH 7.4)
Briefly: Thioflavin-T assay of Aβ1-42 self-aggregation inhibition. The class given is biochemical. Conditions: for % Inhibition of Aβ Aggregation: Aβ1-42 10 µM, 24 h at 37 °C, Th-T fluorescence; for percent of self-aggregation of Aβ-(1-42): without any compound taken as 100%. The protocol: A thioflavin-T (Th-T) assay was used to evaluate the ability of 1–6 and 8–10, isolated from GN bark resin extract, to inhibit Aβ42 aggregation. The presence of Aβ plaques in the brain appears to be related to cognitive decline and neurodegeneration.
The Thioflavin-T assay used to investigate the Aβ1-42 self-aggregation activity was performed as previously described. Aβ1-42 was dissolved in a 50 mM phosphate buffer (pH 7.4) to obtain a […] stock solution. […] In black and opaque 96-well plates, 2 µL of each compound were added at a concentration of 100 µM. Then, in each well, Aβ1-42 solution was added to give a final concentration of 10 µM and mixed thoroughly. Covered plates were left in the dark for 24 h at 37 °C without agitation. After incubation, each well was loaded with 190 µL of […] ThT in 50 mM glycine/NaOH buffer (pH 8.0), and fluorescence intensities were measured at 446 nm and 490 nm for excitation and emission, respectively. The percent inhibition of each compound was calculated and reported.

The next assay deals with T3, recombinant human MAO-B (Homo sapiens, UniProt P27338).
T3 construct: purchased Sigma-Aldrich
T3 sequence (P27338 1-520): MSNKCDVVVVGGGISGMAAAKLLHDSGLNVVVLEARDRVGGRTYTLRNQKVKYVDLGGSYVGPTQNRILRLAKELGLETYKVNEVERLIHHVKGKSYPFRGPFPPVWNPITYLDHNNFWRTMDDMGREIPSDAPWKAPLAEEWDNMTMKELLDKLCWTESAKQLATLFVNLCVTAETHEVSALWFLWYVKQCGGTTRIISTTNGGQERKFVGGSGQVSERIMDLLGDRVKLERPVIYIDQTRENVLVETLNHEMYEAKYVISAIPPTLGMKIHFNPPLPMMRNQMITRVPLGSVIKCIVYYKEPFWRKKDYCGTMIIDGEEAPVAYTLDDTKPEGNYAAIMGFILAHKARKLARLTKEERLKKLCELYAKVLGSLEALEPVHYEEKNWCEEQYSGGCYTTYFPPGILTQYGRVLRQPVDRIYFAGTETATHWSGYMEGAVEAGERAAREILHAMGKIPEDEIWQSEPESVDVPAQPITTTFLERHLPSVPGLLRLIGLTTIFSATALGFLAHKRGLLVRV
Briefly: Inhibitory activity on recombinant human MAO-B (kynuramine, fluorescence). The class given is biochemical. Conditions: for isoenzyme selectivity by selectivity index (MAO-B): from Si values; for IC50: recombinant human MAO-B, kynuramine substrate. Here is the method:
as §1

A further assay concerns Aβ (1-42). The arrangement: method as in PMID 27038926. The settings on record: Aβ (1-42) incubated with compound 6 days at 37 °C; cited from earlier work.
[1] abbreviates: recombinant human MAO-A, kynuramine substrate, read-out: IC50 MAO-A.
Setting [2] is: selective index from Ki values (Ki = IC50/(1 + [S]/Km)), Si = Ki (MAO-B)/Ki (MAO-A).

Read-outs that look alike come from different tables or passages of the source.

T2 sequence (P05067 672-713 limits assumed): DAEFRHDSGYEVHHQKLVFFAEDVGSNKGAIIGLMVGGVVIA

Regarding `COc1cc2oc3c(OC)c(O)ccc3c(=O)c2c(O)c1CC=C(C)C` [Compound 1, cowagarcinone C], the IC50 on recombinant human MAO-A (setting [1]) is 100.2 ± 0.35 µM. Also, the “Si MAO-A” value at recombinant human MAO-A was 3.407. At Aβ1-42 (compound 100 µM), the “% Inhibition of Aβ Aggregation” value is 46.79 ± 5.46% and the “percent of self-aggregation of Aβ-(1-42)” value was 53.21 ± 5.46%. On recombinant human MAO-B, the “isoenzyme selectivity by selectivity index (MAO-B)” value is recorded as “selectivity index on MAO-B” and the half-maximal inhibitory concentration (IC50) is 17.99 ± 0.11 µM. In addition, the “Si MAO-B” value at recombinant human MAO-B (setting [2]) amounted to 0.294.
Regarding `COc1cc2c(=O)c3c(O)c(C/C=C(\C)CCC=C(C)C)c(O)cc3oc2cc1O` [Compound 2, cowaxanthone], the IC50 on recombinant human MAO-A (setting [1]) was found to be 119.8 ± 0.75 µM. Further, the “Si MAO-A” value at recombinant human MAO-A worked out at 0.307. For the same molecule, on Aβ1-42 (compound 100 µM), the “% Inhibition of Aβ Aggregation” value is listed as 58.56 ± 3.28% and the “percent of self-aggregation of Aβ-(1-42)” value is recorded as 41.44 ± 3.28%. The IC50 on recombinant human MAO-B was 238.5 ± 2.03 µM. Also, the “Si MAO-B” value on recombinant human MAO-B (setting [2]) was determined as 3.254.
For `COc1c(O)cc2oc3cc(O)c(CC=C(C)C)c(O)c3c(=O)c2c1CC=C(C)C` [Compound 3, α-mangostin], the amyloid aggregation inhibition result with Aβ (1-42) is “inhibiting amyloid aggregation”. Also, the IC50 at recombinant human MAO-A (setting [1]) was determined as 79.81 ± 0.5 µM. Also, on recombinant human MAO-A, the “Si MAO-A” value is given as 1.218. Moreover, on Aβ1-42 (compound 100 µM), the “% Inhibition of Aβ Aggregation” value was “Not detected”. Moreover, on recombinant human MAO-B, the “isoenzyme selectivity by selectivity index (MAO-B)” value is given as “selectivity index on MAO-B” and the IC50 is 40.1 ± 0.89 µM. Further, the “Si MAO-B” value at recombinant human MAO-B (setting [2]) was determined as 0.821.
Turning to `COc1cc2oc3cc(O)c(CC=C(C)C)c(O)c3c(=O)c2c(CC=C(C)C)c1OC` [Compound 4, cowaxanthone B], the IC50 on recombinant human MAO-A (setting [1]) is 40.21 ± 0.35 µM. In addition, the “Si MAO-A” value at recombinant human MAO-A turned out to be 1.579. Further, the “% Inhibition of Aβ Aggregation” value at Aβ1-42 (compound 100 µM) was “Not detected”. On recombinant human MAO-B, the “isoenzyme selectivity by selectivity index (MAO-B)” value is recorded as “selectivity index on MAO-B” and the IC50 amounted to 15.6 ± 0.26 µM. Besides, the “Si MAO-B” value on recombinant human MAO-B (setting [2]) is reported as 0.6333.
Regarding `COc1c(O)cc2oc3cc(O)c(CC=C(C)C)c(O)c3c(=O)c2c1C/C=C(\C)CCC=C(C)C` [Compound 5, cowanin], at recombinant human MAO-A, the IC50 turned out to be 7.1 ± 0.03 µM and the “Si MAO-A” value is given as 0.266. At Aβ1-42 (compound 100 µM), the “% Inhibition of Aβ Aggregation” value was “Not detected”. Further, on recombinant human MAO-B, the “Si MAO-B” value stood at 3.762 and the IC50 was determined as 16.3 ± 1.44 µM.
With `COc1c(O)cc2oc3cc4c(c(O)c3c(=O)c2c1C/C=C(\C)CCC=C(C)C)C=CC(C)(C)O4` [Compound 6, fuscaxanthone A], the concentration for half-maximal inhibition (IC50) at recombinant human MAO-A (setting [1]) is 69.92 ± 0.06 µM. Also, the “Si MAO-A” value at recombinant human MAO-A was found to be 558.273. The “% Inhibition of Aβ Aggregation” value on Aβ1-42 (compound 100 µM) is “Not detected”. In addition, on recombinant human MAO-B, the “isoenzyme selectivity by selectivity index (MAO-B)” value was “selectivity index on MAO-B” and the IC50 came to 0.07 ± 0.01 µM. For the same molecule, the “Si MAO-B” value at recombinant human MAO-B (setting [2]) was determined as 0.00179.
For `COc1c(O)cc2oc3cc4occc4c(O)c3c(=O)c2c1C/C=C(\C)CCC=C(C)C` [Compound 8, xanthochymusxanthone A], the IC50 on recombinant human MAO-A (setting [1]) was 100.5 ± 0.44 µM; at recombinant human MAO-B, greater than 400 µM. The “Si MAO-A” value on recombinant human MAO-A is less than 0.153. Besides, the “% Inhibition of Aβ Aggregation” value on Aβ1-42 (compound 100 µM) was “Not detected”. In addition, the “Si MAO-B” value on recombinant human MAO-B (setting [2]) amounted to 0.6522.
`COc1c(O)c(CC=C(C)C)c2oc3cc(O)c(CC=C(C)C)c(O)c3c(=O)c2c1CC=C(C)C` [Compound 9, 7-O-methylgarcinone E]: the half-inhibitory concentration (IC50) at recombinant human MAO-A (setting [1]) came to 25.4 ± 0.63 µM. Further, the “Si MAO-A” value at recombinant human MAO-A came to 38.705. The “% Inhibition of Aβ Aggregation” value at Aβ1-42 (compound 100 µM) was “Not detected”. At recombinant human MAO-B, the “isoenzyme selectivity by selectivity index (MAO-B)” value is reported as “selectivity index on MAO-B” and the IC50 came to 0.4 ± 0.01 µM. For the same molecule, the “Si MAO-B” value at recombinant human MAO-B (setting [2]) was 0.0256.
Consider `COc1c(O)c(CC=C(C)C)c2oc3cc(O)c(CC=C(C)C)c(O)c3c(=O)c2c1C/C=C(\C)CCC=C(C)C` [Compound 10, cowagarcinone A], for which the IC50 on recombinant human MAO-A (setting [1]) is 3.58 ± 0.02 µM; at recombinant human MAO-B it was greater than 400 µM. For the same molecule, the “Si MAO-A” value on recombinant human MAO-A was less than 0.005. Besides, on Aβ1-42 (compound 100 µM), the “% Inhibition of Aβ Aggregation” value is on record as “Not detected”. The “Si MAO-B” value at recombinant human MAO-B (setting [2]) worked out at 183.168.
Consider `COc1cc(/C=C/C(=O)CC(=O)/C=C/c2ccc(O)c(OC)c2)ccc1O` [Curcumin, reference compound], for which, on Aβ1-42 (positive control at 5 µM), the “% Inhibition of Aβ Aggregation” value is listed as 51.73 ± 2.89% and the “percent of self-aggregation of Aβ-(1-42)” value turned out to be 48.27 ± 2.89%.
